Assay results published in US9006455B2 (Bristol-Myers Squibb Company, priority 2009, dated 2015).
Read-outs that look alike come from different tables or passages of the source.

Tested on: HCV 1b genotype
Test: HCV Replicon assay (HCV 1b genotype)
Format: cell-based
Settings: Hepatitis C virus, HCV 1b genotype replicon
Outline: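 Cell-based HCV genotype 1b replicon assay in HCV-neo replicon cells, including replicons carrying NS5A resistance substitutions; luciferase reporter read-outs also used.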

## COC(=O)N[C@H](C(=O)N1CCC[C@@H]1c1nc2ncc(-c3ccc4cc(-c5cnc6nc([C@@H]7CCCN7C(=O)[C@@H](NC(=O)OC)C(C)C)[nH]c6c5)ccc4c3)cc2[nH]1)C(C)C [Example 23, Methyl((1S)-1-(((2R)-2-(6-(6-(2-((2S)-1-((2S)-2-((methoxycarbonyl)amino)-3-methylbutanoyl)-2-pyrrolidinyl)-1H-imidazo[4,5-b]pyridin-6-yl)-2-naphthyl)-1H-imidazo[4,5-b]pyridin-2-yl)-1-pyrrolidinyl)carbonyl)-2-methylpropyl)carbamate]
read-out: EC50
  EC50: 0.888 nM
read-out: Range (EC50 values against HCV 1b)
  EC50: 0.0101 to 1 nM
